{"source": "paper PMC10485906", "about": "“Development of a Dihydroquinoline–Pyrazoline GluN2C/2D-Selective Negative Allosteric Modulator of the N-Methyl-D-aspartate Receptor” (ACS Chemical Neuroscience, 2023)", "key": {"GluN1/GluN2C": {"molecular_target": "GluN1/GluN2C (Rattus norvegicus, UniProt Q00961)", "sequence (Q00961 20-1237, other chains not shown)": "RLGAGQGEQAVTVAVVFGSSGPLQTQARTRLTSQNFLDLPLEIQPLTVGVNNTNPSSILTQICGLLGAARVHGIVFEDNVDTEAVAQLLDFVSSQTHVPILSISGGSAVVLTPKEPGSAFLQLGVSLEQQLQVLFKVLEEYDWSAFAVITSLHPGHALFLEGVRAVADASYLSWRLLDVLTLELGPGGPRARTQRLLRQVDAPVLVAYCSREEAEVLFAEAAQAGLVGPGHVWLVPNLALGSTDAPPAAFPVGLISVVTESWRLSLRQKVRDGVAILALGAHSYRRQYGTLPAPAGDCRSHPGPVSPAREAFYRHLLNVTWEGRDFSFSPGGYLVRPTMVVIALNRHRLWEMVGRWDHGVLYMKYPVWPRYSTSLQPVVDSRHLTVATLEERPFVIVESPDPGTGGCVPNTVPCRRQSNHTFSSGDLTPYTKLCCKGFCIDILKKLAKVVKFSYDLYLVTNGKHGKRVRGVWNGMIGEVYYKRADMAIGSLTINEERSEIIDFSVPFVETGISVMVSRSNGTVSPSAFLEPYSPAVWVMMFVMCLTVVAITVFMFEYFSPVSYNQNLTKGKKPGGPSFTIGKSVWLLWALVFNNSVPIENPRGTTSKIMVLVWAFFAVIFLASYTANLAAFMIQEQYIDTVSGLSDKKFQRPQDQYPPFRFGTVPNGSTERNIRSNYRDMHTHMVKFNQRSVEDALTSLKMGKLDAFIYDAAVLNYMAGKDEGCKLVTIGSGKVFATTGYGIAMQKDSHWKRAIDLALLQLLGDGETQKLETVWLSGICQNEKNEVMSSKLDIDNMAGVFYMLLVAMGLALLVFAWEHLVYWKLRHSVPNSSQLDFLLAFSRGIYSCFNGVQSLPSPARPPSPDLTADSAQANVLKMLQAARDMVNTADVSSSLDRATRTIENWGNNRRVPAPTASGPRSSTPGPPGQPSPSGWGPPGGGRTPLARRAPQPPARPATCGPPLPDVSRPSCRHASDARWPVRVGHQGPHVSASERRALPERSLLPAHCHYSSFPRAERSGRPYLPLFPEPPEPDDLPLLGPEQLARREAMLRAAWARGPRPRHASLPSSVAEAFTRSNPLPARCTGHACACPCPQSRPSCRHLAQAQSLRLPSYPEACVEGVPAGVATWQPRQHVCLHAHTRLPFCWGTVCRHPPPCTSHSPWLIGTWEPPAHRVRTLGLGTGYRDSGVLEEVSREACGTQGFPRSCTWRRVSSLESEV", "design": "GluN2B (NM_012574.1), GluN2C (NM_012575.3), and GluN2D (NM_022797.2) were provided by; expressed in transfected cells; host or cells: Xenopus laevis oocytes (cRNA injection)", "settings": "reproduced for comparison; cited from earlier work"}, "hP2x": {"tested_on": "hP2x", "assay": "Off-target, oocytes, purinergic receptor", "format": "cell-based, human", "settings": "1 µM compound; 9 µM ATP", "protocol": "(§1) Analysis of Off-target Actions\n(§2) Compound (S)-(-)-2i was tested at 1 µM for actions at glycine-activated GluN1/GluN3A (human GluN1-F484A,T518L/GluN3A referred to a GluN1-FA,TL/GluN3A) and rat GluN1-4a/GluN3B in the presence of 0.5 µM CGP-78608. cRNA injection ratios for GluN1/GluN3 were 1:2. Compound (S)-(-)- 2i was also tested for actions at AMPA (rat GluA1, rat GluA2, human GluA3-L531Y), kainate (rat GluK2), nicotinic acetylcholine (rat α7 and α4β2, cRNA ratio 1:1), GABAA (rat α1β2γ2S, cRNA ratio 1:1:1), GABAC (rat ρ1), glycine (rat α1), and purinergic (human P2X) receptors expressed in Xenopus oocytes. cRNA encoding the receptor subunits was synthesized from linear template cDNA using the mMessage mMachine kit (Ambion). Oocytes were injected with 1-5 ng cRNA in a 50 nL volume and incubated in Barth's solution at 15°C for 2-5 days prior to recording. GluK2-expressing oocyte were incubated in 1 mg/ml (10 µM) concanavalin-A for 10 min prior to recording. The cDNAs encoding GABAC and glycine subunits were provided by Dr. D. Weiss (University of Texas Health Science Center at San Antonio). cDNAs encoding nicotinic acetylcholine receptor subunits were provided by Drs. […]\n(§3) GABA. […] Responses in presence of test compound were expressed as a percent of control. […]"}, "GluA2-R607Q": {"molecular_target": "T1, GluA2-R607Q (Rattus norvegicus, UniProt P19491)", "T1 construct": "expressed in transfected cells; host or cells: Xenopus oocytes (cRNA injection)", "T1 sequence (P19491 22-883, stated change not applied)": "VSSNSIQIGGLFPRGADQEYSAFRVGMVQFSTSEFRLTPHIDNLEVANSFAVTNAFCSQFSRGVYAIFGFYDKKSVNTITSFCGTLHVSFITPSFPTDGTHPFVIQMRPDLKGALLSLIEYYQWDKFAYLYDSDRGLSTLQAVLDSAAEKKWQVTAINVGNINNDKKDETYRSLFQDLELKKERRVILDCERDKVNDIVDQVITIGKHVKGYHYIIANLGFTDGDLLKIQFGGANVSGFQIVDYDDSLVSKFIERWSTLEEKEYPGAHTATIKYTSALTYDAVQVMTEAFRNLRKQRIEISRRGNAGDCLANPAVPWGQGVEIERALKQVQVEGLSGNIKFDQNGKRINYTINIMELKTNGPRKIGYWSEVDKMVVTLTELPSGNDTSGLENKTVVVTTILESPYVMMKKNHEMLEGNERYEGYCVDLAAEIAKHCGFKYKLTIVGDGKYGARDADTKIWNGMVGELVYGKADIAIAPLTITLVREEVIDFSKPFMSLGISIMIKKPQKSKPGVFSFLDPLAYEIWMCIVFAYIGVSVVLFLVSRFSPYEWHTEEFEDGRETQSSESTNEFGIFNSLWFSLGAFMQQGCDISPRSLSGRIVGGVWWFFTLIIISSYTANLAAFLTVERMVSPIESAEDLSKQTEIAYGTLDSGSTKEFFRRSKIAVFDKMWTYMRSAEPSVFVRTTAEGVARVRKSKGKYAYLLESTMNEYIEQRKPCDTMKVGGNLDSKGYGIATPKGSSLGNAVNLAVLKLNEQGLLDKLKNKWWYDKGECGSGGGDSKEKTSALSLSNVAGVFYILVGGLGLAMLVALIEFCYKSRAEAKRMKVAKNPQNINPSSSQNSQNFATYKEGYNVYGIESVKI", "assay": "Off-target, oocytes, GluA2", "format": "cell-based", "settings": "1 µM compound; 100 µM glutamate", "protocol": "as §1, §2, §3"}, "42-nACh": {"molecular_target": "42-nACh (Rattus norvegicus, UniProt P09483+P12390)", "sequence (P09483 31-630)": "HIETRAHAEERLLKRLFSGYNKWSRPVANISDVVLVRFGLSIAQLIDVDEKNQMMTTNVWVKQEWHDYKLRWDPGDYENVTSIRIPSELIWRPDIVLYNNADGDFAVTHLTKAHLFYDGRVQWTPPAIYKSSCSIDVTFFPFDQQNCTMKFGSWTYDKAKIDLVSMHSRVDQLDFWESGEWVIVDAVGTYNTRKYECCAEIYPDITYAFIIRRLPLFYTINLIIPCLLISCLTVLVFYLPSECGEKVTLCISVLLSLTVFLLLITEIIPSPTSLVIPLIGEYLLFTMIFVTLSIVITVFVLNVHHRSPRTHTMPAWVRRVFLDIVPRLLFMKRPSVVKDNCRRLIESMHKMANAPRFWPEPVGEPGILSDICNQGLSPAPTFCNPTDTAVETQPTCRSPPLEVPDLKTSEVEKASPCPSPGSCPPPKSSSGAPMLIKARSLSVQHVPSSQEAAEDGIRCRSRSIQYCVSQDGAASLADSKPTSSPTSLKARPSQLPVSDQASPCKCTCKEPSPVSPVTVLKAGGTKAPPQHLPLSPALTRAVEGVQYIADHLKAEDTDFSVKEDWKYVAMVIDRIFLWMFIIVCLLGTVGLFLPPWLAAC", "sequence (P12390 25-500)": "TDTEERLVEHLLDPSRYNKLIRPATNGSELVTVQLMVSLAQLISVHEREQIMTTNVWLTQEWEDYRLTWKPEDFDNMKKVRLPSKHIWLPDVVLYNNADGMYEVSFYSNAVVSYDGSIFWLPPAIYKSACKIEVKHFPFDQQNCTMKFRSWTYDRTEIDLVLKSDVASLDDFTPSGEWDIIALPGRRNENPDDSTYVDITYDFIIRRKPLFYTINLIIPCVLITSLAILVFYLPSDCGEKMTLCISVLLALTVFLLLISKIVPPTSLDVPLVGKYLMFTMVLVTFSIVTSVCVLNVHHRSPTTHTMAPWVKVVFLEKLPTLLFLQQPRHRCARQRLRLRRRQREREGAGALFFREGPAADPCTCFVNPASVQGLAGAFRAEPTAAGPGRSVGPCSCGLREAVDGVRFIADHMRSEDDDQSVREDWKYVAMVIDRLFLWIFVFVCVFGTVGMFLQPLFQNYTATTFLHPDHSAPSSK", "assay": "Off-target, oocytes, nicotinic acetylcholine 42", "format": "cell-based", "settings": "1 µM compound; 10 µM acetylcholine", "protocol": "as §1, §2, §3"}, "-GABAC": {"molecular_target": "T2, -GABAC (Rattus norvegicus, UniProt P50572)", "T2 construct": "expressed in transfected cells; host or cells: Xenopus oocytes (cRNA injection)", "T2 sequence (P50572 22-480)": "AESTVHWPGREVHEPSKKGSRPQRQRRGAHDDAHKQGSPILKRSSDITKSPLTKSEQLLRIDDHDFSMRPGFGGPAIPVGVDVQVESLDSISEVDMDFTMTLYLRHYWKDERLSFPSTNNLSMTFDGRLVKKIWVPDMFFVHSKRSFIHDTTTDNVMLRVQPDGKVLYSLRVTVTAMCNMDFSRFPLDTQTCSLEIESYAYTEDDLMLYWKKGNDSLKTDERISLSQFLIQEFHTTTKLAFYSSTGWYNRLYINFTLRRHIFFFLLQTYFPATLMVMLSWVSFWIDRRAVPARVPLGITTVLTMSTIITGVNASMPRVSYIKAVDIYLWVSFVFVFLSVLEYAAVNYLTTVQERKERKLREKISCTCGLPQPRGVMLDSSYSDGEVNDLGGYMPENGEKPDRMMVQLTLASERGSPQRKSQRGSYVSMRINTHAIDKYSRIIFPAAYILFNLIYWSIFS", "assay": "Off-target, oocytes, GABAC", "format": "cell-based", "settings": "1 µM compound; 100 µM GABA", "protocol": "as §1, §2, §3"}, "GluA1": {"molecular_target": "T3, GluA1 (Rattus norvegicus, UniProt P19490)", "T3 construct": "expressed in transfected cells; host or cells: Xenopus oocytes (cRNA injection)", "T3 sequence (P19490 19-907)": "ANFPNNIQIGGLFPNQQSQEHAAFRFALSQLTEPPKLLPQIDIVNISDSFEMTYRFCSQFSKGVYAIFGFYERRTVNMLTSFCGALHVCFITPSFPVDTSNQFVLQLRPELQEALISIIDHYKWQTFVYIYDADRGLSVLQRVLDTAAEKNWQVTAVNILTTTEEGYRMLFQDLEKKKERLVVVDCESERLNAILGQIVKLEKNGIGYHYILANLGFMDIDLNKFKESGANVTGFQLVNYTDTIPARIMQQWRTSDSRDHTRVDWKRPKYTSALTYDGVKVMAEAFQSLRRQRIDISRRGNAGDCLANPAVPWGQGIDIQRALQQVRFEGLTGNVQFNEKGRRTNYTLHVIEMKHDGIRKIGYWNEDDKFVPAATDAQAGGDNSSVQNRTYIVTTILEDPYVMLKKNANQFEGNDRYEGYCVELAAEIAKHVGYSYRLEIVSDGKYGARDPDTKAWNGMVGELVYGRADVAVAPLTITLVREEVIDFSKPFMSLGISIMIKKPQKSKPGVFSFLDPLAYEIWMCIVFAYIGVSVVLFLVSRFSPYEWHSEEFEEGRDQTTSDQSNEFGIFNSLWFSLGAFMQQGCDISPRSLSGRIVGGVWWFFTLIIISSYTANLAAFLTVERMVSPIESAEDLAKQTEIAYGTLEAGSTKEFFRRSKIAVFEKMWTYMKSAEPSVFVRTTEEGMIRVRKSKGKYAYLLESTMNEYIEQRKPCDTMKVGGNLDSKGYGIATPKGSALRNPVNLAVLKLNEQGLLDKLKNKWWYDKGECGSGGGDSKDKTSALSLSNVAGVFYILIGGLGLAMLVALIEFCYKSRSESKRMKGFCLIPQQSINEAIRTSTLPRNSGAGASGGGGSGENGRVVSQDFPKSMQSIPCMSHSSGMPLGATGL", "assay": "Off-target, oocytes, GluA1", "format": "cell-based", "settings": "1 µM compound; 100 µM glutamate", "protocol": "as §1, §2, §3"}}}
{"smiles": "O=C(O)CCC(=O)N1N=C(c2c(-c3ccc(Cl)cc3)c3ccccc3[nH]c2=O)CC1c1ccc(Cl)cc1", "note": "(stereo not drawn) [2a]", "values": [{"measurement": "I 30 μM / I control GluN2C", "setting": "GluN1/GluN2C", "result": "3.1 ± 0.6 (2,6) %"}]}
{"smiles": "O=C(O)CC(F)(F)C(=O)N1N=C(c2c(-c3ccc(Cl)cc3)c3ccccc3[nH]c2=O)C[C@H]1c1ccc(Cl)cc1", "note": "[(S)-(−)-2i]", "values": [{"measurement": "% control hP2x", "setting": "hP2x", "result": "108 ± 0.53", "unit": "%"}, {"measurement": "% control GluA2-R607Q", "setting": "GluA2-R607Q", "result": "98 ± 0.85", "unit": "%"}, {"measurement": "% control 42-nACh", "setting": "42-nACh", "result": "91 ± 2.1", "unit": "%"}, {"measurement": "% control -GABAC", "setting": "-GABAC", "result": "96 ± 1.2", "unit": "%"}, {"measurement": "% control GluA1", "setting": "GluA1", "result": "100 ± 2.0", "unit": "%"}]}
